Test systems include A498; A549; CCRF-CEM; DU-145; EKVX; HCT-116; HCT-15; HT-29; MDA-MB-231; MDA-MB-435; NCI-H522; NCI/ADR-RES; OVCAR-3; RPMI-8226; SK-MEL-28; SNB-19; SNB-75; SW-620; SR; HOP-92.
Holding throughout (assay): NCI anticancer screen, dose series, 48 h

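48-hour exposure; five concentrations; linearly interpolated endpoints. Abbreviation: GI50, concentration required for 50% inhibition of growth.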 Active and inactive are the calls of the source. Rule as the data show it: active = GI50 up to about 1.1 µM and inactive = higher.

As for `O=C(O)C(Cc1ccccc1)Cc1ccccc1`, the GI50 in the assay with A498, in the assay on A549, in the assay on CCRF-CEM, in the assay with DU-145, in the assay with EKVX and in the assay on HCT-116 was > 100 µM (inactive) throughout. Besides, the GI50 is greater than 100 µM with HCT-15; > 100 µM (inactive) in the assay with HT-29; > 100 µM (inactive) with MDA-MB-231; > 100 µM (inactive) in the assay with MDA-MB-435; > 100 µM (inactive) with NCI-H522; > 100 µM (inactive) in the assay with NCI/ADR-RES. Further, the GI50 in the assay with OVCAR-3, in the assay with RPMI-8226, in the assay with SK-MEL-28, with SNB-19, in the assay on SNB-75 and with SW-620 was > 100 µM (inactive) throughout.

Turning to `Nc1nc2cc(Cl)ccc2n1N`, the GI50 in the assay on A498, in the assay with A549, in the assay with CCRF-CEM, in the assay with DU-145, with EKVX and in the assay on HCT-116 was > 100 µM (inactive) each time. Also, the GI50 in the assay with HCT-15 was greater than 100 µM; in the assay with HT-29, > 100 µM (inactive); with MDA-MB-231, > 100 µM (inactive); with MDA-MB-435, > 100 µM (inactive); with NCI-H522 it was > 100 µM (inactive); in the assay on RPMI-8226, > 100 µM (inactive). Further, the GI50 in the assay with SK-MEL-28, with SNB-19, in the assay with SNB-75, in the assay with SR and in the assay with SW-620 was > 100 µM (inactive) each time.

For the compound `CC1C(c2ccc(Cl)cc2)c2cc3c(cc2OC1N1CCOCC1)OCO3` (stereo not drawn), the GI50 in the assay with A549 was 75.7 µM (inactive); with CCRF-CEM it was 92.9 µM (inactive); in the assay on DU-145 it was > 100 µM (inactive); with EKVX, > 100 µM (inactive); in the assay with HCT-116, 95.1 µM (inactive); with HCT-15, greater than 100 µM. Moreover, the GI50 in the assay with HT-29 was 49.5 µM (inactive); in the assay on MDA-MB-435, 95.1 µM (inactive); in the assay on NCI-H522, 46.3 µM (inactive); with NCI/ADR-RES, > 100 µM (inactive); with OVCAR-3 it was 85.3 µM (inactive); with RPMI-8226, 34.1 µM (inactive). For the same compound, the GI50 in the assay with SK-MEL-28 is > 100 µM (inactive); in the assay with SNB-19, 80.9 µM (inactive); in the assay with SNB-75, 44.1 µM (inactive); in the assay with SR, 0.931 µM (active); in the assay with SW-620 it was > 100 µM (inactive).

Regarding `O=C(O)c1cccc(CN2CCCCC2)c1`, the GI50 in the assay with A498, in the assay with A549, in the assay on CCRF-CEM, with DU-145, with EKVX and in the assay on HCT-116 was > 100 µM (inactive) in each case. In addition, the GI50 with HCT-15 was greater than 100 µM; in the assay with HT-29, > 100 µM (inactive); in the assay on MDA-MB-231, > 100 µM (inactive); with MDA-MB-435, > 100 µM (inactive); in the assay with NCI-H522, > 100 µM (inactive); in the assay on NCI/ADR-RES, > 100 µM (inactive). Besides, the GI50 in the assay on OVCAR-3, with RPMI-8226, with SK-MEL-28, in the assay with SNB-19 and in the assay on SW-620 was > 100 µM (inactive) in each case.

For the compound `O=C1CCCc2ccc3c(c21)CC1(Cc2ccccc2C1)C3`, the GI50 is 25.6 µM (inactive) in the assay with A498; 34.7 µM (inactive) with A549; 7.78 µM (inactive) in the assay on EKVX; 23 µM (inactive) with HCT-116; 41.7 µM in the assay with HCT-15; 17 µM (inactive) in the assay with HOP-92. Also, the GI50 in the assay on HT-29 is 17.5 µM (inactive); in the assay with MDA-MB-231 it was 27.5 µM (inactive); in the assay with MDA-MB-435, 27 µM (inactive); with NCI-H522 it was 23.9 µM (inactive); in the assay on NCI/ADR-RES, 50.6 µM (inactive); with OVCAR-3, 33.5 µM (inactive). Moreover, the results for the GI50 in the assay with RPMI-8226 and with SNB-75 were 16.9 µM (inactive) and 1.26 µM (inactive), respectively.

In the case of `Cn1c(S)nc2c(Cl)cc(Cl)cc2c1=O`, the GI50 with A549 was > 100 µM (inactive); in the assay on CCRF-CEM, 24.8 µM (inactive); in the assay on DU-145 it was > 100 µM (inactive); with EKVX, > 100 µM (inactive); with HCT-116 it was > 100 µM (inactive); in the assay with HCT-15, greater than 100 µM. Besides, the GI50 with HOP-92 is 63.5 µM (inactive); in the assay with MDA-MB-231, > 100 µM (inactive); in the assay on MDA-MB-435, > 100 µM (inactive); in the assay with NCI-H522 it was 44.1 µM (inactive); in the assay with NCI/ADR-RES, > 100 µM (inactive); in the assay on OVCAR-3, > 100 µM (inactive). In addition, the GI50 with SK-MEL-28 was > 100 µM (inactive); in the assay on SNB-19, > 100 µM (inactive); in the assay on SNB-75, 55.3 µM (inactive); with SW-620 it was > 100 µM (inactive).

As for `Cc1ccc(S(=O)(=O)OC(COC(=O)c2ccccc2)C(OS(=O)(=O)c2ccc(C)cc2)C(OS(=O)(=O)c2ccc(C)cc2)C(COC(=O)c2ccccc2)OS(=O)(=O)c2ccc(C)cc2)cc1` (stereo not drawn), the GI50 was > 100 µM (inactive) in the assay with A498; > 100 µM (inactive) in the assay on A549; > 100 µM (inactive) with CCRF-CEM; > 100 µM (inactive) with EKVX; > 100 µM (inactive) in the assay with HCT-116; greater than 100 µM in the assay on HCT-15. Besides, the GI50 in the assay on HOP-92, in the assay on HT-29, in the assay with NCI-H522, in the assay with OVCAR-3, in the assay with RPMI-8226 and with SK-MEL-28 was > 100 µM (inactive) throughout. Moreover, the GI50 in the assay with SNB-19 was > 100 µM (inactive); in the assay with SNB-75 it was 29.1 µM (inactive); with SR, > 100 µM (inactive); in the assay with SW-620, > 100 µM (inactive).

As for `Nc1ccc(C(=O)Nn2c(-c3ccccc3)nc3ccccc3c2=O)cc1`, the GI50 was 32.3 µM (inactive) with A498; > 100 µM (inactive) in the assay on A549; > 100 µM (inactive) in the assay with CCRF-CEM; > 100 µM (inactive) with DU-145; > 100 µM (inactive) in the assay on EKVX; > 100 µM (inactive) in the assay with HCT-116. Besides, the GI50 with HOP-92, in the assay on HT-29, in the assay with MDA-MB-231, in the assay with MDA-MB-435, with NCI-H522 and in the assay with OVCAR-3 was > 100 µM (inactive) throughout. Further, the GI50 in the assay on RPMI-8226 is > 100 µM (inactive); in the assay with SK-MEL-28 it was > 100 µM (inactive); in the assay with SNB-19 it was > 100 µM (inactive); in the assay on SNB-75, 89.7 µM (inactive); in the assay on SR, > 100 µM (inactive); with SW-620 it was > 100 µM (inactive).

For `CC1/C(=N/O)CC(c2ccccc2)N(N=O)C1c1ccccc1` (stereo not drawn), the GI50 is > 100 µM (inactive) in the assay on A549; > 100 µM (inactive) in the assay with CCRF-CEM; > 100 µM (inactive) in the assay with DU-145; > 100 µM (inactive) in the assay with EKVX; > 100 µM (inactive) in the assay with HCT-116; greater than 100 µM in the assay with HCT-15. In addition, the GI50 in the assay with HOP-92, in the assay on HT-29, with MDA-MB-231, in the assay on MDA-MB-435, in the assay on NCI-H522 and in the assay with NCI/ADR-RES was > 100 µM (inactive) in each case. Moreover, the GI50 in the assay with OVCAR-3 was > 100 µM (inactive); with RPMI-8226, > 100 µM (inactive); with SK-MEL-28, > 100 µM (inactive); with SNB-19, > 100 µM (inactive); in the assay on SNB-75, 91.4 µM (inactive); in the assay on SW-620, > 100 µM (inactive).

Regarding `N#Cc1c(N)nc2c(C#N)c(N)cc3c2c1Oc1ccccc1-3`, the GI50 with A498, in the assay on A549, in the assay with CCRF-CEM, in the assay with DU-145, in the assay on EKVX and with HCT-116 was > 100 µM (inactive) throughout. Also, the GI50 in the assay with HCT-15 was greater than 100 µM; in the assay on HOP-92, > 100 µM (inactive); in the assay on HT-29, > 100 µM (inactive); in the assay on MDA-MB-231 it was > 100 µM (inactive); in the assay with MDA-MB-435, > 100 µM (inactive); with NCI/ADR-RES, > 100 µM (inactive). Moreover, the GI50 in the assay on OVCAR-3, in the assay on RPMI-8226, in the assay with SK-MEL-28, in the assay with SNB-19, in the assay with SNB-75 and in the assay on SW-620 was > 100 µM (inactive) throughout.

As to `CN(Cc1ccccc1)c1cc(=O)n(C)c(=O)[nH]1`, the GI50 with A498 is 58.2 µM (inactive); in the assay on A549, > 100 µM (inactive); in the assay on CCRF-CEM, 62.2 µM (inactive); in the assay on DU-145, > 100 µM (inactive); in the assay with HCT-116, > 100 µM (inactive); with HCT-15, greater than 100 µM. For the same compound, the GI50 in the assay on HOP-92, with HT-29, with MDA-MB-231, in the assay with MDA-MB-435, in the assay on NCI-H522 and in the assay on NCI/ADR-RES was > 100 µM (inactive) each time. Moreover, the GI50 with OVCAR-3, in the assay with RPMI-8226, in the assay with SK-MEL-28, in the assay with SNB-19 and with SW-620 was > 100 µM (inactive) in each case.

On to `[N-]=[N+]=CC(=O)OCCCCl`, for which the GI50 is > 100 µM (inactive) with A498; > 100 µM (inactive) in the assay with CCRF-CEM; > 100 µM (inactive) in the assay on DU-145; > 100 µM (inactive) in the assay on EKVX; > 100 µM (inactive) in the assay on HCT-116; greater than 100 µM in the assay on HCT-15. Besides, the GI50 in the assay on HOP-92, in the assay on HT-29, with MDA-MB-231, in the assay with MDA-MB-435, with NCI-H522 and with OVCAR-3 was > 100 µM (inactive) each time. Besides, the GI50 in the assay with RPMI-8226 was > 100 µM (inactive); in the assay on SK-MEL-28, > 100 µM (inactive); with SNB-19, > 100 µM (inactive); with SR it was 4.25 µM (inactive); in the assay on SW-620, > 100 µM (inactive).

Source of the values: ChEMBL document CHEMBL1201862, “PubChem BioAssay data set” (2004).
